Measurements from patent US20240218022A1, “ANTI-VISTA MACROCYCLIC PEPTIDES AND COMPOSITIONS” (BRISTOL-MYERS SQUIBB COMPANY, priority 2022, published 2024).
Starred links: 1 amine or outer side, 2 acyl side, 3 side chain; linkers in the order of their positions; H or OH if unused. Positions of bridges follow the written chain, without caps; N, C: chain ends. Non-standard residues stand in square brackets, D forms with d. Residues, ends and D or L forms follow the SMILES beside them. Phe(4-CONH2) = NC(=O)c1ccc(C[C@H](N)C(=O)O)cc1; γGlu = O=C(O)[C@H](CCC(=O)[*:2])N[*:1]; NMeL = CN[C@@H](CC(C)C)C(=O)O; Ahp(2) = CCCCC[C@H](N)C(=O)O; NMeNle = CCCC[C@H](NC)C(=O)O; Tle = CC(C)(C)[C@H](N)C(=O)O; NMeS = CN[C@@H](CO)C(=O)O; NHexGly = CCCCCCNCC(=O)O; Nle = CCCC[C@H](N)C(=O)O; Aun = NCCCCCCCCCCC(=O)O; AEEA = NCCOCCOCC(=O)O

Biological target: T1, mouse VISTA (mVISTA) (Mus musculus, UniProt Q9D659)
T1 construct: expressed in transfected cells; host or cells: Human embryonic kidney 293T cells
T1 sequence (Q9D659 33-308): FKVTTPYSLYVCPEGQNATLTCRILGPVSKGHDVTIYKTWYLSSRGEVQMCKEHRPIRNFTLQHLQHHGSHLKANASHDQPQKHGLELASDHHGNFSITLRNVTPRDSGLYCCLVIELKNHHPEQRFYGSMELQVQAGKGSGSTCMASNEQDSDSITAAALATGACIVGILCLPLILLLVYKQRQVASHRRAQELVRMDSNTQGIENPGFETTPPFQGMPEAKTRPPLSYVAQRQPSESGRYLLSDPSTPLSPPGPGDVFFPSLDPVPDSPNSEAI
Assay: Cell-Based Binding High-Content Assay For mVISTA (HC CBA mVISTA)
Details: read-out: HC CBA mVISTA IC50
Summary of the method: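 Read-out: Alexa 647–streptavidin signal imaged on fixed, Hoechst-stained mVISTA-293T cells, with IC50 taken from a four-parameter logistic curve. Compounds competed with 2 nM biotinylated peptide for 30 min at room temperature, tested under both no-wash and wash (1 h compound, media exchange, 1 h) formats.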

IC50	Compound
38.1 nM	CCCCCCN1CC(=O)N[C@@H](Cc2ccc(O)cc2)C(=O)N[C@@H](CCCC)C(=O)N[C@@H](CC(N)=O)C(=O)N[C@@H](CCCNC(=N)N)C(=O)N(C)[C@@H](CCCC)C(=O)N[C@@H](CCCCC)C(=O)N2CCC[C@H]2C(=O)N[C@@H](C(C)(C)C)C(=O)N[C@@H](CO)C(=O)N[C@H](C(=O)NCCOCCOCC(=O)N[C@@H](CCC(=O)NCCOCCOCC(=O)NCCCCCCCCCCC(=O)O)C(=O)O)CSCC(=O)N[C@@H](Cc2ccc(C(N)=O)cc2)C(=O)N[C@@H](Cc2ccc(O)cc2)C(=O)N[C@@H](CC(=O)O)C1=O [compound 2259] ({CH2CO}-[Phe(4-CONH2)]YD[NHexGly]Y[Nle]NR[NMeNle][Ahp(2)]P[Tle]SC[AEEA][γGlu][AEEA][Aun]-OH; thioether N-14)
16 nM	CCCCCCN1CC(=O)N[C@@H](Cc2ccc(O)cc2)C(=O)N[C@@H](CC(C)C)C(=O)N[C@@H](CC(N)=O)C(=O)N[C@@H](CCCNC(=N)N)C(=O)N(C)[C@@H](CCCC)C(=O)N[C@@H](CCCCC)C(=O)N2CCC[C@H]2C(=O)N[C@@H](C(C)(C)C)C(=O)N[C@@H](CO)C(=O)N[C@H](C(=O)NCCOCCOCC(=O)N[C@@H](CCC(=O)NCCOCCOCC(=O)NCCCCCCCCCCC(=O)O)C(=O)O)CSCC(=O)N[C@@H](Cc2ccccc2)C(=O)N[C@@H](Cc2ccc(O)cc2)C(=O)N[C@@H](CC(=O)O)C1=O [compound 2260] ({CH2CO}-FYD[NHexGly]YLNR[NMeNle][Ahp(2)]P[Tle]SC[AEEA][γGlu][AEEA][Aun]-OH; thioether N-14)
23.8 nM	CCCCCCN1CC(=O)N[C@@H](Cc2ccc(O)cc2)C(=O)N[C@@H](CC(C)C)C(=O)N[C@@H](CC(N)=O)C(=O)N[C@@H](CCCNC(=N)N)C(=O)N(C)[C@@H](CCCC)C(=O)N[C@@H](CCCCC)C(=O)N2CCC[C@H]2C(=O)N[C@@H](C(C)(C)C)C(=O)N[C@@H](CC(=O)O)C(=O)N[C@H](C(=O)NCCOCCOCC(=O)N[C@@H](CCC(=O)NCCOCCOCC(=O)NCCCCCCCCCCC(=O)O)C(=O)O)CSCC(=O)N[C@@H](Cc2ccccc2)C(=O)N[C@@H](Cc2ccc(O)cc2)C(=O)N[C@@H](CC(=O)O)C1=O [compound 2261] ({CH2CO}-FYD[NHexGly]YLNR[NMeNle][Ahp(2)]P[Tle]DC[AEEA][γGlu][AEEA][Aun]-OH; thioether N-14)
39.8 nM	CCCCCCN1CC(=O)N[C@@H](Cc2ccc(O)cc2)C(=O)N[C@@H](CC(C)C)C(=O)N[C@@H](CC(N)=O)C(=O)N[C@@H](CCCNC(=N)N)C(=O)N(C)[C@@H](CO)C(=O)N[C@@H](CCCCC)C(=O)N2CCC[C@H]2C(=O)N[C@@H](C(C)(C)C)C(=O)N[C@@H](CO)C(=O)N[C@H](C(=O)NCCOCCOCC(=O)N[C@@H](CCC(=O)NCCOCCOCC(=O)NCCCCCCCCCCC(=O)O)C(=O)O)CSCC(=O)N[C@@H](Cc2ccccc2)C(=O)N[C@@H](Cc2ccc(O)cc2)C(=O)N[C@@H](CC(=O)O)C1=O [compound 2262] ({CH2CO}-FYD[NHexGly]YLNR[NMeS][Ahp(2)]P[Tle]SC[AEEA][γGlu][AEEA][Aun]-OH; thioether N-14)
25.1 nM	CCCCCCN1CC(=O)N[C@@H](Cc2ccc(O)cc2)C(=O)N[C@@H](CC(C)C)C(=O)N[C@@H](CC(N)=O)C(=O)N[C@@H](CCCNC(=N)N)C(=O)N(C)[C@@H](CC(C)C)C(=O)N[C@@H](CCCCC)C(=O)N2CCC[C@H]2C(=O)N[C@@H](C(C)(C)C)C(=O)N[C@@H](CO)C(=O)N[C@H](C(=O)NCCOCCOCC(=O)N[C@@H](CCC(=O)NCCOCCOCC(=O)NCCCCCCCCCCC(=O)O)C(=O)O)CSCC(=O)N[C@@H](Cc2ccccc2)C(=O)N[C@@H](Cc2c[nH]c3ccccc23)C(=O)N[C@@H](CC(=O)O)C1=O [compound 2263] ({CH2CO}-FWD[NHexGly]YLNR[NMeL][Ahp(2)]P[Tle]SC[AEEA][γGlu][AEEA][Aun]-OH; thioether N-14)
24.7 nM	CCCCCCN1CC(=O)N[C@@H](Cc2ccc(O)cc2)C(=O)N[C@@H](CC(C)C)C(=O)N[C@@H](CC(N)=O)C(=O)N[C@@H](CCCNC(=N)N)C(=O)N(C)[C@@H](CO)C(=O)N[C@@H](CCCCC)C(=O)N2CCC[C@H]2C(=O)N[C@@H](C(C)(C)C)C(=O)N[C@@H](CC(=O)O)C(=O)N[C@H](C(=O)NCCOCCOCC(=O)N[C@@H](CCC(=O)NCCOCCOCC(=O)NCCCCCCCCCCC(=O)O)C(=O)O)CSCC(=O)N[C@@H](Cc2ccccc2)C(=O)N[C@@H](Cc2c[nH]c3ccccc23)C(=O)N[C@@H](CC(=O)O)C1=O [compound 2264] ({CH2CO}-FWD[NHexGly]YLNR[NMeS][Ahp(2)]P[Tle]DC[AEEA][γGlu][AEEA][Aun]-OH; thioether N-14)
17.8 nM	CCCCCCN1CC(=O)N[C@@H](Cc2ccc(O)cc2)C(=O)N[C@@H](CC(C)C)C(=O)N[C@@H](CC(N)=O)C(=O)N[C@@H](CCCNC(=N)N)C(=O)N(C)[C@@H](CCCC)C(=O)N[C@@H](CCCCC)C(=O)N2CCC[C@H]2C(=O)N[C@@H](C(C)(C)C)C(=O)N[C@@H](CC(=O)O)C(=O)N[C@H](C(=O)NCCOCCOCC(=O)N[C@@H](CCC(=O)NCCOCCOCC(=O)NCCCCCCCCCCC(=O)O)C(=O)O)CSCC(=O)N[C@@H](Cc2ccccc2)C(=O)N[C@@H](Cc2c[nH]c3ccccc23)C(=O)N[C@@H](CC(=O)O)C1=O [compound 2265] ({CH2CO}-FWD[NHexGly]YLNR[NMeNle][Ahp(2)]P[Tle]DC[AEEA][γGlu][AEEA][Aun]-OH; thioether N-14)
37.9 nM	CCCCCCN1CC(=O)N[C@@H](Cc2ccc(O)cc2)C(=O)N[C@@H](CC(C)C)C(=O)N[C@@H](CC(N)=O)C(=O)N[C@@H](CCCNC(=N)N)C(=O)N(C)[C@@H](CO)C(=O)N[C@@H](CCCCC)C(=O)N2CCC[C@H]2C(=O)N[C@@H](C(C)(C)C)C(=O)N[C@@H](CO)C(=O)N[C@H](C(=O)NCCOCCOCC(=O)N[C@@H](CCC(=O)NCCOCCOCC(=O)NCCCCCCCCCCC(=O)O)C(=O)O)CSCC(=O)N[C@@H](Cc2ccccc2)C(=O)N[C@@H](Cc2c[nH]c3ccccc23)C(=O)N[C@@H](CC(=O)O)C1=O [compound 2266] ({CH2CO}-FWD[NHexGly]YLNR[NMeS][Ahp(2)]P[Tle]SC[AEEA][γGlu][AEEA][Aun]-OH; thioether N-14)
28.9 nM	CCCCCCN1CC(=O)N[C@@H](Cc2ccc(O)cc2)C(=O)N[C@@H](CC(C)C)C(=O)N[C@@H](CC(N)=O)C(=O)N[C@@H](CCCNC(=N)N)C(=O)N(C)[C@@H](CC(C)C)C(=O)N[C@@H](CCCCC)C(=O)N2CCC[C@H]2C(=O)N[C@@H](C(C)(C)C)C(=O)N[C@@H](CC(=O)O)C(=O)N[C@H](C(=O)NCCOCCOCC(=O)N[C@@H](CCC(=O)NCCOCCOCC(=O)NCCCCCCCCCCC(=O)O)C(=O)O)CSCC(=O)N[C@@H](Cc2ccccc2)C(=O)N[C@@H](Cc2ccc(O)cc2)C(=O)N[C@@H](CC(=O)O)C1=O [compound 2267] ({CH2CO}-FYD[NHexGly]YLNR[NMeL][Ahp(2)]P[Tle]DC[AEEA][γGlu][AEEA][Aun]-OH; thioether N-14)
16.1 nM	CCCCCCN1CC(=O)N[C@@H](Cc2ccc(O)cc2)C(=O)N[C@@H](CC(C)C)C(=O)N[C@@H](CC(N)=O)C(=O)N[C@@H](CCCNC(=N)N)C(=O)N(C)[C@@H](CCCC)C(=O)N[C@@H](CCCCC)C(=O)N2CCC[C@H]2C(=O)N[C@@H](C(C)(C)C)C(=O)N[C@@H](CO)C(=O)N[C@H](C(=O)NCCOCCOCC(=O)N[C@@H](CCC(=O)NCCOCCOCC(=O)NCCCCCCCCCCC(=O)O)C(=O)O)CSCC(=O)N[C@@H](Cc2ccccc2)C(=O)N[C@@H](Cc2c[nH]c3ccccc23)C(=O)N[C@@H](CC(=O)O)C1=O [compound 2268] ({CH2CO}-FWD[NHexGly]YLNR[NMeNle][Ahp(2)]P[Tle]SC[AEEA][γGlu][AEEA][Aun]-OH; thioether N-14)
